For test [1], the system named is 20S proteasome. Nature of the test: Library deconvolution, cleavage rates of sublibraries and individual compounds. The class given is biochemical, human. The following applies: P4 Dap(O2(Cbz)), P3 Dap(GO1); 3.4 × 10^−6 M; 20S proteasome 1.46 × 10^−9 M; pH 8.2, 37 °C. Here is the method: Deconvolution of the synthesized library with a fixed Arg in position P1 and diversified by DAPEG residues at positions P2–P4 was performed in a solution using a mix and split approach. […] Since the proteasome structure has three pairs of catalytically active subunits with distinct specificities (chymotrypsin, trypsin, and caspase), we repeated these experiments in the presence of a trypsin subunit inhibitor (PR671A). In effect, a 96% reduction in activity was recorded. This observation allowed us to proceed with screening at position P3 (Figure 2A).
Figure 2 Deconvolution of the library (at an average concentration of 3.4 × 10^−6 M) with the general formula ABZ–X4–X3–X2–Arg–ANB–NH2 against the 20S proteasome (1.46 × 10^−9 M). (A) Cleavage rates of individual sublibraries recorded for position X4; (B) Cleavage rates of individual sublibraries recorded for position X3; (C) Cleavage rates of individual compounds modified in position X2. […]
For enzymatic studies, the human 20S proteasome, 26S proteasome, and 20S immunoproteasome were purchased from Boston Biochem (Cambridge, MA, USA). […] The volume composition of each well of the 96-well plate was: 20 µL library, 160 µL assay buffer, and 20 µL 20S proteasome solution at a concentration of 1.07 × 10^−9 M. Absorbance or fluorescence measurements were performed on a FluoroStar OMEGA multimode microplate reader (BMG, Ortenberg, Germany). […]

Test [2] deals with 20S proteasome. Nature of the test: Proteolytic cleavage pattern by RP-HPLC. The class given is biochemical, human. The following applies: substrate 3.1 × 10^−6 M, 20S proteasome 1.07 × 10^−9 M, one hour. Here is the method:
For each sample of the diluted substrate (concentration; 3.1 × 10^−6 M), an appropriate amount of proteasome (1.07 × 10^−9 M) was added, and the solution was incubated for 5, 30, and 60 min. The proteolytic reaction was monitored by RP-HPLC.

Test [3] has as its system 20S proteasome. As to the kind of experiment: Inhibitory studies: cleavage of substrate 1 in the presence of selective proteasome inhibitors. The test is classed as biochemical, human. The following applies: deduced from cleavage with selective inhibitors. An excerpt: A black, 96-well flat-bottomed microplate (Brand GMBH, Wertheim, Germany) was used for the inhibitory studies. Two inhibitors, carfilzomib (a selective inhibitor of the β5 subunit of the 20S proteasome) and epoxomicin, were purchased from Merck (Darmstadt, Germany) and used at final concentrations of 1.15 × 10^−6 M and 5.0 × 10^−5 M, respectively. The β2 inhibitor, PR671A [20], and the β1 inhibitor, NCOO1 [21], were used at a concentration of 5 × 10^−6 M. These reagents were kindly provided by Alexei Kisselev from Dartmouth University (Dartmouth, NH, USA). The concentration of 20S proteasome was 1.07 × 10^−9 M. The buffered proteasome solution was mixed with 10 µL inhibitor solution. This mixture was incubated for 30 min at 37 °C. After this period, the substrate solution was added at a concentration of 1.34 × 10^−5 M, and the fluorescence was measured over time at 320 nm excitation and 450 nm emission wavelengths. All measurements were performed in triplicate.

Test [4] has as its system 20S proteasome, 26S proteasome and immunoproteasome 20S. Nature of the test: Cleavage of substrate 1 by 20S, 26S and 20S immunoproteasome. The test is classed as biochemical, human. The following applies: 20S vs 26S vs 20S immunoproteasome, equimolar concentrations; initial screening. Here is the method:
For enzymatic studies, the human 20S proteasome, 26S proteasome, and 20S immunoproteasome were purchased from Boston Biochem (Cambridge, MA, USA). The 20S proteasome concentration for library deconvolution was in the nanomolar range, and this proteasome entity was used for the main study. Deconvolution of the peptide libraries was performed using the iterative solution method. Dimethyl sulfoxide (DMSO) was used as a solvent for preparation of the stock solution (5 mg/mL) for each lyophilized sub-library. This stock solution was diluted ten times using an assay buffer (50 mM Tris/HCl buffer (pH 8.2)) for the 20S and 20Si proteasome, and for 26S, the buffer was supplemented with 40 mM KCl, 2 mM EDTA, 1 mM DTT, 100 µM ATP, and 50 µg/mL bovine serum albumin (BSA). The volume composition of each well of the 96-well plate was: 20 µL library, 160 µL assay buffer, and 20 µL 20S proteasome solution at a concentration of 1.07 × 10^−9 M. Absorbance or fluorescence measurements were performed on a FluoroStar OMEGA multimode microplate reader (BMG, Ortenberg, Germany). Absorbance increases were monitored at 410 nm. The excitation and emission wavelengths were 320 and 450 nm respectively, for the ABZ/ANB. Enzymatic hydrolysis of the peptide was performed in the assay buffer at 37 °C and continued over 60 min.

The test system of test [5] is 20S proteasome in human urine. As to the kind of experiment: Proteasome activity in human urine with substrate 1. The class given is biochemical. The settings on record: for proteasome activity (cleavage of substrate 1): 80 µL urine, substrate 1.34 × 10^−5 M, 320/450 nm, Mann–Whitney p < 0.0001. Here is the method: All urine samples were purchased from St. Vincent de Paul Hospital in Gdynia, Poland (contract no. JN/777/R720/08.11.17). All methods and procedures were performed in accordance with this contract agreement. Participants were informed about the study and sample collection, and their written consent was collected. […] Therefore, the samples were considered unnamed. The samples of human urine were taken during mid-urination and kept for 48 h at −80 °C until required. All samples used for assay development were taken from healthy volunteers (n = 5), and oncological samples were obtained from patients diagnosed with bladder cancer (n = 8).
The urine samples were thawed at room temperature, gently vortexed, and briefly centrifuged (<20 s) to collect the sample at the bottom of the tube. A total of 80 μL urine was transferred to a 96-well microplate and mixed with assay buffer and substrate 1. Proteasome activity was assayed as described earlier. Briefly, 80 µL of urine from healthy volunteers, urine from patients diagnosed with bladder cancer, and bladder cancer urine supplemented by the inhibitor PR671A were mixed with 200 µL of the assayed buffer and 20 µL of the substrate at a concentration of 1.34 × 10^−5 M, and the fluorescence was quantified. An excitation wavelength equal to 320 nm and an emission wavelength of 450 nm were used.
The resulting data were analyzed using Graphpad Prism version 6.0 software (GraphPad Software Inc., La Jolla, CA, USA). All fluorescent measurements were performed in triplicate and represented by the mean ± standard deviation (SD). A two-tailed Mann–Whitney test was applied for the statistical analysis (p < 0.0001).

Turning to “ABZ–Dap(O2(Cbz))–Dap(GO1)–Dap(O2(Cbz))–Arg–ANB–NH2 [substrate 1]”, the “cleavage rate, position P2 (X2), individual compounds” value in the test with 20S proteasome [1] is “significantly higher compared to the rates of the other tested systems”. Moreover, in the test on 20S proteasome [2], the cleavage products result is “two products with retention times corresponding to ABZ–Dap(O2(Cbz))–Dap(GO1)–Dap(O2(Cbz))–Arg–OH (2) (tR = 18.24) and ABZ–NH2 (tR = 7.89)”. In addition, the “sub-site selectivity of hydrolysis” value in the test with 20S proteasome [3] was “hydrolyzed exclusively by the β2 sub-site”. Further, the “selectivity among proteasome entities” value in test [4] is on record as “selectively proteolyzed by the 20S proteasome”. Besides, the “fluorescence (in words)” value is on record as “fluorescence increase that was observed in all samples” in test [5] (bladder cancer urine samples, n = 8) and “insignificant background levels of fluorescence” in test [5] (healthy urine samples, n = 5). The “proteasome activity (cleavage of substrate 1)” value in test [5] (bladder cancer urine, n = 8, mean ± SD) was 48.4 ± 28.1; in test [5] (healthy urine, n = 5, mean ± SD), 0.1 ± 0.04.

The record behind these values is PMC7177456, “A Peptidomimetic Fluorescent Probe to Detect the Trypsin β2 Subunit of the Human 20S Proteasome” (International Journal of Molecular Sciences, 2020).
